According to patent publication US8354436B2 (4SC Discovery GmbH, priority 2011, dated 2013):
Read-outs that look alike come from different tables or passages of the source.

How the values were obtained:
Type in all cases: cell-based
Conditions in all cases: 48 hours
IFN-γ = IFN-γ production by PHA-stimulated human PBMC (OptEIA human IFN-g ELISA)
Procedure, shortened: (§1)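 Healthy-donor PBMC (1×10^5 cells/well) were activated with 2 μg/ml PHA and cultured with test compounds for 48 hours; cytokines were then quantified in supernatants by the respective immunoassay. Screening used 10, 1, 0.1 and 0.01 μM; IC50 came from semilogarithmic compound titration.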

[1] = system: PBMC from healthy human donors; assay: T cell proliferation assay (PHA-stimulated human PBMC, BrdU ELISA)
Procedure, shortened: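 Healthy-donor PBMC isolated on Ficoll, seeded at 1×10⁵ cells/well in RPMI with 10% dialysed FCS, stimulated with 2 μg/ml PHA in presence of test compound. Proliferation read after 48 hours by BrdU-incorporation ELISA.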

IL-17FF = IL-17FF production by PHA-stimulated human PBMC (human IL-17F ELI-Pair)
Procedure, shortened: as §1

[2] = human PBMC, 2 μg/ml PHA, read-out: C: IC50 (IFNγ)
[3] = human PBMC, 2 μg/ml PHA, read-out: D: IC50 (Tcell proliferation)
[4] = human PBMC, 2 μg/ml PHA, read-out: B: IC50 (IL-17FF)
[5] = PHA-stimulated human PBMC, column C, read-out: IC50 (IFNγ)
[6] = PHA-stimulated human PBMC, column D, read-out: IC50 (Tcell proliferation)
[7] = PHA-stimulated human PBMC, column B, read-out: IC50 (IL-17FF)

Compound: Cc1nnc(-c2c(-c3c(F)cccc3Cl)noc2-c2cnn(-c3cccc(Cl)c3)c2C(F)(F)F)o1 [Example B-4, 2-(3-(2-chloro-6-fluorophenyl)-5-(1-(3-chlorophenyl)-5-(trifluoromethyl)-1H-pyrazol-4-yl)isoxazol-4-yl)-5-methyl-1,3,4-oxadiazole]
- IC50 (IFN-γ; [2]): < 10 nM
- IC50 [1, 3]: < 10 nM
- IC50 (IL-17FF; [4]): < 10 nM

Compound: COC(=O)c1c(-c2c(Cl)cccc2Cl)noc1-c1cnn(-c2cccc(F)c2)c1C(F)(F)F [Example I-109, methyl 3-(2,6-dichlorophenyl)-5-(1-(3-fluorophenyl)-5-(trifluoromethyl)-1H-pyrazol-4-yl)isoxazole-4-carboxylate]
- IC50 (IFN-γ; [5]): < 10 nM
- IC50 [1, 6]: < 10 nM
- IC50 (IL-17FF; [7]): < 10 nM

Compound: Cc1nnc(-c2c(-c3c(F)cccc3Cl)noc2-c2cnn(-c3cccnc3)c2C(F)(F)F)s1 [Example B-21, 3-(2-chloro-6-fluorophenyl)-4-(5-methyl-1,3,4-thiadiazol-2-yl)-5-(1-(pyridin-3-yl)-5-(trifluoromethyl)-1H-pyrazol-4-yl)isoxazole]
- IC50 (IFN-γ; [2]): 10 to 100 nM
- IC50 [1, 3]: 10 to 100 nM
- IC50 (IL-17FF; [4]): 10 to 100 nM

Compound: CNC(=O)c1c(-c2c(F)cccc2Cl)noc1-c1cnn(-c2ccccn2)c1C(F)(F)F [IB-93, 3-(2-chloro-6-fluorophenyl)-N-methyl-5-(1-(pyridin-2-yl)-5-(trifluoromethyl)-1H-pyrazol-4-yl)isoxazole-4-carboxamide]
- IC50 (IFN-γ; [5]): 100 to 1000 nM
- IC50 [1, 6]: 1000 to 10000 nM
- IC50 (IL-17FF; [7]): 100 to 1000 nM

Compound: O=C(Nc1c(-c2c(F)cccc2Cl)noc1-c1cnn(-c2cccc(F)c2)c1C(F)(F)F)C(F)(F)F [IB-22, N-{3-(2-chloro-6-fluorophenyl)-5-[1-(3-fluorophenyl)-5-(trifluoromethyl)-1H-pyrazol-4-yl]-1,2-oxazol-4-yl}-2,2,2-trifluoroacetamide]
- IC50 (IFN-γ; [5]): 1000 to 10000 nM
- IC50 [1, 6]: 1000 to 10000 nM
- IC50 (IL-17FF; [7]): 1000 to 10000 nM

Compound: COC(=O)c1c(-c2c(F)cccc2Cl)noc1-c1cnn(-c2ccncc2)c1C(F)(F)F [IB-69, methyl 3-(2-chloro-6-fluorophenyl)-5-(1-(pyridin-4-yl)-5-(trifluoromethyl)-1H-pyrazol-4-yl)isoxazole-4-carboxylate]
- IC50 (IFN-γ; [5]): 10 to 100 nM
- IC50 [1, 6]: 10 to 100 nM
- IC50 (IL-17FF; [7]): 10 to 100 nM

Compound: CCOC(=O)c1c(-c2c(F)cccc2Cl)noc1-c1cnn(CCN2CCOCC2)c1C(F)(F)F [IB-97, ethyl 3-(2-chloro-6-fluorophenyl)-5-(1-(2-morpholinoethyl)-5-(trifluoromethyl)-1H-pyrazol-4-yl)isoxazole-4-carboxylate]
- IC50 (IFN-γ; [5]): 100 to 1000 nM
- IC50 [1, 6]: 1000 to 10000 nM
- IC50 (IL-17FF; [7]): 100 to 1000 nM

Compound: CNC(=O)c1c(-c2ccccc2Cl)noc1-c1cnn(-c2cccc(F)c2)c1C(F)(F)F [Example I-96, 3-(2-chlorophenyl)-5-(1-(3-fluorophenyl)-5-(trifluoro-methyl)-1H-pyrazol-4-yl)-N-methylisoxazole-4-carboxamide]
- IC50 (IFN-γ; [5]): 100 to 1000 nM
- IC50 [1, 6]: 100 to 1000 nM
- IC50 (IL-17FF; [7]): 100 to 1000 nM

Compound: CCOC(=O)c1c(-c2c(F)cccc2Cl)noc1-c1cnn(-c2ccccc2F)c1C(F)(F)F [Example I-42, Ethyl 3-(2-chloro-6-fluorophenyl)-5-[1-(2-fluorophenyl)-5-(trifluoromethyl)-1H-pyrazol-4-yl]isoxazole-4-carboxylate]
- IC50 (IFN-γ; [5]): < 10 nM
- IC50 [1, 6]: 10 to 100 nM
- IC50 (IL-17FF; [7]): 10 to 100 nM

Compound: CC(C)OC(=O)c1c(-c2c(F)cccc2Cl)noc1-c1cnn(-c2cccc(Cl)c2)c1C(F)(F)F [IB-31, isopropyl 3-(2-chloro-6-fluorophenyl)-5-(1-(3-chlorophenyl)-5-(trifluoromethyl)-1H-pyrazol-4-yl)isoxazole-4-carboxylate]
- IC50 (IFN-γ; [5]): < 10 nM
- IC50 [1, 6]: < 10 nM
- IC50 (IL-17FF; [7]): < 10 nM

Compound: CON(C)C(=O)c1c(-c2c(F)cccc2Cl)noc1-c1cnn(-c2cccnc2)c1C(F)(F)F [IB-56, 3-(2-chloro-6-fluorophenyl)-N-methoxy-N-methyl-5-(1-(pyridin-3-yl)-5-(trifluoromethyl)-1H-pyrazol-4-yl)isoxazole-4-carboxamide]
- IC50 (IFN-γ; [5]): 1000 to 10000 nM
- IC50 [1, 6]: 1000 to 10000 nM
- IC50 (IL-17FF; [7]): 1000 to 10000 nM

Compound: CCOC(=O)c1c(-c2c(F)cccc2Cl)noc1-c1cnn(-c2cccc(C(N)=O)c2)c1C(F)(F)F [IB-100, ethyl 5-(1-(3-carbamoylphenyl)-5-(trifluoromethyl)-1H-pyrazol-4-yl)-3-(2-chloro-6-fluorophenyl)isoxazole-4-carboxylate]
- IC50 (IFN-γ; [5]): 1000 to 10000 nM
- IC50 [1, 6]: 1000 to 10000 nM
- IC50 (IL-17FF; [7]): 1000 to 10000 nM

Compound: Fc1cc(F)cc(-n2ncc(-c3onc(-c4c(F)cccc4Cl)c3Br)c2C(F)(F)F)c1 [IB-27, 4-bromo-3-(2-chloro-6-fluorophenyl)-5-(1-(3,5-difluorophenyl)-5-(trifluoromethyl)-1H-pyrazol-4-yl)isoxazole]
- IC50 (IFN-γ; [5]): 100 to 1000 nM
- IC50 [1, 6]: 100 to 1000 nM
- IC50 (IL-17FF; [7]): 100 to 1000 nM

Compound: Fc1cccc(-n2ncc(-c3onc(-c4c(F)cccc4Cl)c3Br)c2C(F)(F)F)c1 [Example I-137, 4-bromo-3-(2-chloro-6-fluorophenyl)-5-(1-(3-fluorophenyl)-5-(trifluoromethyl)-1H-pyrazol-4-yl)isoxazole]
- IC50 (IFN-γ; [5]): 100 to 1000 nM
- IC50 [1, 6]: 10 to 100 nM
- IC50 (IL-17FF; [7]): 100 to 1000 nM

Compound: Fc1cccc(Cl)c1-c1noc(-c2cnn(-c3cccnc3)c2C(F)(F)F)c1-c1nnco1 [Example B-15, 2-(3-(2-chloro-6-fluorophenyl)-5-(1-(pyridin-3-yl)-5-(trifluoromethyl)-1H-pyrazol-4-yl)isoxazol-4-yl)-1,3,4-oxadiazole]
- IC50 (IFN-γ; [2]): 100 to 1000 nM
- IC50 [1, 3]: 100 to 1000 nM
- IC50 (IL-17FF; [4]): 100 to 1000 nM

Compound: CC(C)NS(=O)(=O)c1cccc(-n2ncc(-c3onc(-c4c(F)cccc4Cl)c3C(=O)OC(C)C)c2C(F)(F)F)c1 [IB-79, isopropyl 3-(2-chloro-6-fluorophenyl)-5-(1-(3-(N-isopropylsulfamoyl)phenyl)-5-(trifluoromethyl)-1H-pyrazol-4-yl)isoxazole-4-carboxylate]
- IC50 (IFN-γ; [5]): 100 to 1000 nM
- IC50 [1, 6]: 100 to 1000 nM
- IC50 (IL-17FF; [7]): 100 to 1000 nM

Compound: CCOC(=O)c1c(-c2c(F)cccc2Cl)noc1-c1cnn(CC2CCCO2)c1C(F)(F)F (stereo not drawn) [IB-96, ethyl 3-(2-chloro-6-fluorophenyl)-5-(1-((tetrahydrofuran-2-yl)methyl)-5-(trifluoromethyl)-1H-pyrazol-4-yl)isoxazole-4-carboxylate]
- IC50 (IFN-γ; [5]): 10 to 100 nM
- IC50 [1, 6]: 10 to 100 nM
- IC50 (IL-17FF; [7]): 10 to 100 nM

Compound: NC(=S)c1c(-c2c(F)cccc2Cl)noc1-c1cnn(-c2ccccc2Cl)c1C(F)(F)F [IB-101, 3-(2-chloro-6-fluorophenyl)-5-(1-(2-chlorophenyl)-5-(trifluoromethyl)-1H-pyrazol-4-yl)isoxazole-4-carbothioamide]
- IC50 (IFN-γ; [5]): 1000 to 10000 nM
- IC50 [1, 6]: 1000 to 10000 nM
- IC50 (IL-17FF; [7]): 1000 to 10000 nM

Compound: NC(=S)c1c(-c2c(F)cccc2Cl)noc1-c1cnn(-c2cccc(Cl)c2)c1C(F)(F)F [Example I-125, 3-(2-chloro-6-fluorophenyl)-5-(1-(3-chlorophenyl)-5-(trifluoromethyl)-1H-pyrazol-4-yl)isoxazole-4-carbothioamide]
- IC50 (IFN-γ; [5]): 100 to 1000 nM
- IC50 [1, 6]: 1000 to 10000 nM
- IC50 (IL-17FF; [7]): 100 to 1000 nM

Compound: COC(=O)c1c(-c2c(F)cccc2Cl)noc1-c1cnn(-c2cccnc2)c1C(F)(F)F [IB-67, methyl 3-(2-chloro-6-fluorophenyl)-5-(1-(pyridin-3-yl)-5-(trifluoromethyl)-1H-pyrazol-4-yl)isoxazole-4-carboxylate]
- IC50 (IFN-γ; [5]): 10 to 100 nM
- IC50 [1, 6]: 10 to 100 nM
- IC50 (IL-17FF; [7]): 10 to 100 nM

Compound: Fc1cccc(Cl)c1-c1noc(-c2cnn(-c3ccccc3)c2C(F)(F)F)c1Br [Example I-145, 4-bromo-3-(2-chloro-6-fluorophenyl)-5-(1-phenyl-5-(trifluoromethyl)-1H-pyrazol-4-yl)isoxazole]
- IC50 (IFN-γ; [5]): < 10 nM
- IC50 [1, 6]: 10 to 100 nM
- IC50 (IL-17FF; [7]): 10 to 100 nM

Compound: CCOC(=O)c1c(-c2ccc(Cl)cc2Cl)noc1-c1cnn(-c2cccc(F)c2)c1C(F)(F)F [Example I-112, ethyl 3-(2,4-dichlorophenyl)-5-(1-(3-fluorophenyl)-5-(trifluoromethyl)-1H-pyrazol-4-yl)isoxazole-4-carboxylate]
- IC50 (IFN-γ; [5]): 10 to 100 nM
- IC50 [1, 6]: 100 to 1000 nM
- IC50 (IL-17FF; [7]): 100 to 1000 nM

Compound: COC(=O)c1c(-c2c(F)cccc2Cl)noc1-c1cnn(C2CCS(=O)(=O)C2)c1C(F)(F)F (stereo not drawn) [Example I-103, methyl 3-(2-chloro-6-fluorophenyl)-5-(1-(3-hydrazinyltetrahy-drothiophene 1,1-dioxide)-5-(trifluoromethyl)-1H-pyrazol-4-yl)isoxazole-4-carboxylate]
- IC50 (IFN-γ; [5]): 100 to 1000 nM
- IC50 [1, 6]: 100 to 1000 nM
- IC50 (IL-17FF; [7]): 100 to 1000 nM

Compound: COc1cccc(Cl)c1-c1noc(-c2cnn(-c3cccnc3)c2C(F)(F)F)c1-c1cnco1 [Example B-31, 3-(2-chloro-6-methoxyphenyl)-4-(oxazol-5-yl)-5-(1-(pyridin-3-yl)-5-(trifluoromethyl)-1H-pyrazol-4-yl)isoxazole]
- IC50 (IFN-γ; [2]): 100 to 1000 nM
- IC50 [1, 3]: 1000 to 10000 nM
- IC50 (IL-17FF; [4]): 1000 to 10000 nM

Compound: CCOC(=O)c1c(-c2c(Cl)cncc2Cl)noc1-c1cnn(-c2cccc(NC(C)=O)c2)c1C(F)(F)F [IB-11, ethyl 5-(1-(3-acetamidophenyl)-5-(trifluoromethyl)-1H-pyrazol-4-yl)-3-(3,5-dichloropyridin-4-yl)isoxazole-4-carboxylate]
- IC50 (IFN-γ; [5]): 10 to 100 nM
- IC50 [1, 6]: 100 to 1000 nM
- IC50 (IL-17FF; [7]): 10 to 100 nM
